# Test results from publication PMC5971037, “Synthesis and evaluation of antimicrobial, antitubercular and anticancer activities of 2-(1-benzoyl-1H-benzo[d]imidazol-2-ylthio)-N-substituted acetamides” (Chemistry Central Journal, 2018).
# pIC50: −log10 of the molar value.
# Assays:
# [1] = system: B. subtilis; assay: Tube dilution MIC; conditions: Bacillus subtilis, 24 h, read-out: MIC B. subtilis
# [2] = system: M. tuberculosis H37Rv (NCFT/TB/537); assay: Well diffusion susceptibility test (zone of inhibition); format: cell-based; conditions: Mycobacterium tuberculosis, 672 h, read-out: Diameter of zone of inhibition against H37Rv (NCFT/TB/537), wells of 8 mm, 50 µg/ml test compound, 25 µg/ml standard drug, 4 weeks, NA = no activity
# [3] = system: E. coli; assay: Tube dilution MIC; conditions: Escherichia coli, 24 h, read-out: MIC E. coli
# [4] = system: C. albicans; assay: microbe, parasite or virus in culture; conditions: Candida albicans, 48 h, read-out: MIC C. albicans
# [5] = system: MCF7 (human breast cancer) cell line; assay: Sulforhodamine-B (SRB) cytotoxicity assay; format: cell-based; conditions: MCF7, read-out: IC50 MCF7
# [6] = system: M. tuberculosis H37Rv; assay: MIC by microplate alamar blue assay; format: cell-based; conditions: Mycobacterium tuberculosis, NA = no activity, read-out: MIC against M. tuberculosis H37Rv
# [7] = In vivo LD50, ED50 and toxic dose in mice models; conditions: mouse, dose that killed 50% of the mice population within the group
# Method: The LD50 and ED50 were determined for the active compounds in mice models infected with Mycobacterium H37Rv (Table 4). […] Thus, ED50 of 1.34 mg/kg was considered safe for each of the compounds. It was observed that this dose was effective and safe for mice in different groups before infecting the mice models with specific TB bacteria as no mortality of any single animal was recorded.
# The LD50 (lethal dose) and ED50 (optimum/effective dose) doses were determined for the active compounds in mice models infected with Mycobacterium H37Rv via ethical permission no., NCFT/EC/16/2313 assigned to Collaborative Research Group (CRG), NCFT, New Delhi, India.
# [8] = system: HCT116 (human colorectal) cell line; assay: Sulforhodamine-B (SRB) cytotoxicity assay; format: cell-based; conditions: HCT-116, read-out: IC50 HCT116
# [9] = system: A. niger; assay: microbe, parasite or virus in culture; conditions: Aspergillus niger, 168 h, read-out: MIC A. niger
# [10] = system: B. cereus; assay: Tube dilution MIC; conditions: Bacillus cereus, 24 h, read-out: MIC B. cereus
# [11] = molecular target: mycobacterial isocitrate lyase (Mycobacterium tuberculosis, UniProt P9WKK7); assay: Mycobacterial isocitrate lyase (ICL) assay; format: biochemical, M. tuberculosis H37Rv; conditions: read-out: Percent inhibition of enzyme, M. ICL activity
# Sequence of mycobacterial isocitrate lyase (P9WKK7 whole entry): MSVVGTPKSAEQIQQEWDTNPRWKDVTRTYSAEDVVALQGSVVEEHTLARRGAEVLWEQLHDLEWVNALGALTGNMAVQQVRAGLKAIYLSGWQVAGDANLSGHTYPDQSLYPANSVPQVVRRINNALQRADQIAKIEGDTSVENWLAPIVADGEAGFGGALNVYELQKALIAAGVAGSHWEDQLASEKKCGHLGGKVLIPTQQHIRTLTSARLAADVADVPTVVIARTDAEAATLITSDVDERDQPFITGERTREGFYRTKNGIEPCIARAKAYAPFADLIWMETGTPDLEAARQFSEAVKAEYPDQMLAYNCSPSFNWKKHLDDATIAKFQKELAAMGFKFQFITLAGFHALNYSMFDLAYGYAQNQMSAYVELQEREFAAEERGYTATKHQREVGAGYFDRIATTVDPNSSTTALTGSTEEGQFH
# Method: The compounds found potent in in vivo evaluation were assayed for inhibition of mycobacterial enzymes viz., isocitrate lyase, pantothenate synthetase and chorismate mutase.
# Isocitrate lyase activity was assayed according to the protocol reported by Dixon and Kornberg (glyoxylate phenyl hydrazone formation) at 10 μM of the compounds.
# [12] = system: S. aureus; assay: Tube dilution MIC; conditions: Staphylococcus aureus, 24 h, read-out: MIC S. aureus
# [13] = system: S. typhi; assay: Tube dilution MIC; format: cell-based; conditions: Salmonella enterica, 24 h, read-out: MIC S. typhi
# [14] = system: A. niger; assay: MFC by subculturing; format: cell-based; conditions: Aspergillus niger, read-out: MFC A. niger
# Method: (§1) The minimum bactericidal concentration (MBC) and minimum fungicidal concentration (MFC) of the synthesized benzimidazole derivatives was determined by subculturing 100 µl of culture from each tube that remained clear in MIC determination onto sterilized petri-plates containing fresh agar medium. The petri-plates were incubated and analyzed for microbial growth visually.
# [15] = system: C. albicans; assay: MFC by subculturing; format: cell-based; conditions: Candida albicans, read-out: MFC C. albicans
# Method: as §1
# [16] = system: M. tuberculosis H37Rv; assay: Minimum lethal concentration (MLC); format: cell-based; conditions: Mycobacterium tuberculosis, NA = no activity, read-out: MLC against M. tuberculosis H37Rv
# [17] = system: B. cereus; assay: MBC by subculturing; format: cell-based; conditions: Bacillus cereus, read-out: MBC B. cereus
# Method: as §1
# [18] = system: S. typhi; assay: MBC by subculturing; format: cell-based; conditions: Salmonella enterica, read-out: MBC S. typhi
# Method: as §1
# [19] = system: S. aureus; assay: MBC by subculturing; format: cell-based; conditions: Staphylococcus aureus
# Method: as §1
# [20] = system: E. coli; assay: MBC by subculturing; format: cell-based; conditions: Escherichia coli
# Method: as §1
# [21] = system: B. subtilis; assay: MBC by subculturing; format: cell-based; conditions: Bacillus subtilis, read-out: MBC B. subtilis
# Method: as §1
Structure (SMILES),MIC [1] [µM],zone of inhibition at 50 µg/mL [2] [mm],MIC [3] [µM],MIC [4] [µM],pIC50 [5],MIC [6] [µg/mL],LD50 [7] [mg/kg],pIC50 [8],MIC [9] [µM],MIC [10] [µM],inhibition at 10 µM [11] [%],MIC [12] [µM],MIC [13] [µM],MFC [14] [µg/mL],MFC [15] [µg/mL],MBC [16] [µg/mL],MBC [17] [µg/mL],MBC [18] [µg/mL],MBC [19] [µg/mL],MBC [20] [µg/mL],also measured
"O=C(CSc1nc2ccccc2n1C(=O)c1ccccc1)Nc1ccc(Cl)cc1 [Compound 15, 2-(1-Benzoyl-1H-benzo[d]imidazol-2-ylthio)-N-(4-chlorophenyl)acetamide]",30,> 20,30,30,4.02,12.5,2.67,4.23,30,30,61.6,30,59,> 50,> 50,25,> 50,> 50,50,50,MBC [21]: > 50 µg/mL
"O=C(CSc1nc2ccccc2n1C(=O)c1ccccc1)Nc1ccc(F)cc1 [Compound 3, 2-(1-Benzoyl-1H-benzo[d]imidazol-2-ylthio)-N-(4-fluorophenyl)acetamide]",31,> 20,31,15,4.61,12.5,1.87,3.70,31,31,52.6,31,31,> 50,25,25,> 50,> 50,> 50,50,MBC [21]: > 50 µg/mL
"O=C(CSc1nc2ccccc2n1C(=O)c1ccccc1)Nc1ccccc1Cl [Compound 4, 2-(1-Benzoyl-1H-benzo[d]imidazol-2-ylthio)-N-(2-chlorophenyl)acetamide]",30,> 20,30,15,4.45,12.5,1.96,4.23,30,30,48.5,30,30,> 50,25,25,> 50,50,50,50,MBC [21]: > 50 µg/mL
"O=C(CSc1nc2ccccc2n1C(=O)c1ccccc1)Nc1ccccc1F [Compound 2, 2-(1-Benzoyl-1H-benzo[d]imidazol-2-ylthio)-N-(2-fluorophenyl)acetamide]",31,> 20,31,15,5.33,12.5,1.81,4.08,31,31,58.8,31,31,> 50,50,25,> 50,50,> 50,50,MBC [21]: 50 µg/mL
"O=C(CSc1nc2ccccc2n1C(=O)c1ccccc1)Nc1cccc([N+](=O)[O-])c1 [Compound 10, 2-(1-Benzoyl-1H-benzo[d]imidazol-2-ylthio)-N-(3-nitrophenyl)acetamide]",29,> 20,29,15,4.10,12.5,1.83,5.24,29,29,61.2,29,29,> 50,> 50,25,> 50,50,50,> 50,MBC [21]: 50 µg/mL
